Data: patent US20210002712A1, “PHOSPHATIDIC ACID SENSOR” (NATIONAL UNIVERSITY CORPORATION CHIBA UNIVERSITY, priority 2019, published 2021)

Experiments:
COS-7 cells = assay: Subcellular localization of the sensor without PA-generating enzyme in COS-7 cells; assay type: cell-based; details: absence of PA-generating enzyme
Method: (§1) FIGS. 13 to 16. […] After 24 h of transfection, the cells were fixed and imaged. Representative data from three independent experiments are shown. Scale bars, 20 μm.
(§2) FIG. 29. Either EGFP alone or EGFP-DGKβ was coexpressed with the DsRed monomer alone, DsRed monomer-Spo20p-PABD or DsRed monomer-PDE4A1-PABD in COS-7 cells as indicated. After 24 h of transfection, the cells were fixed and imaged. Representative data from three independent experiments are shown. Scale bars, 20 μm.
(§3) COS-7 cells were maintained in Dulbecco's modified Eagle's medium supplemented with 10% fetal bovine serum, 100 units/ml penicillin, and 100 μg/ml streptomycin at 37° C. in an atmosphere containing 5% CO2. Cells were transiently transfected using PolyFect reagent as described by the manufacturer.
(§4) The cells were then fixed in 4% paraformaldehyde. The coverslips were mounted using Vectashield. […] Images were acquired using FV-10 ASW software.

EGFP-DGKγ = assay: Colocalization with EGFP-DGKγ in PMA-stimulated COS-7 cells; assay type: cell-based; details: 1 μM PMA 30 min
Method: FIGS. 19 and 20. […] Representative data from three independent experiments are shown. Scale bars, 20 μm. FIG. 20.
as §3, §4

[1] = Lipid overlay assay, other lipids; assay type: binding; details: GST-tagged protein 20 nM; 100 pmol lipids
Text: (§5) FIG. 9. Equimolar amounts (100 pmol) of various lipids were spotted onto nitrocellulose membranes as indicated. Acyl chains of these glycerolipids and sphingolipids are C16:0 (Echelon Biosciences).
(§6) FIGS. 10 and 12. The blots were scanned and quantified using ImageJ software. The PA binding activity (spot intensity) of α-Syn-N was set to 100%. Values are presented as the mean±S.D. of three independent experiments. ***P<0.005 versus PA.
(§7) FIG. 27. Equimolar amounts (500 pmol) of 18:1/18:1-PA, 18:1/18:1-PC, 18:1/18:1-PE, 18:1/18:1-PG), 18:1/18:1-PS, 18:1/18:1-PI and 18:1/18:1-PI(4,5)P2 were spotted onto nitrocellulose membranes as indicated and incubated with purified GST-tagged-α-Syn-N(20 nM). Lipid-bound proteins were detected by an anti-GST antibody.
(§8) FIG. 28. The blots were scanned and quantified using ImageJ software. The PA binding activity (spot intensity) of α-Syn-N was set to 100%. Values are presented as the mean±S.D. of three independent experiments. ***P<0.005 versus 18:1/18:1-PA.
(§9) Three hundred picomoles of the indicated lipids were spotted onto a nitrocellulose membrane. Membrane Lipid Strip was also used. The membranes were subjected to blocking with 1% skim milk in Tris-buffered saline, pH 7.4, for 1 h at room temperature. […] Quantitative densitometry was performed using ImageJ software.

Myr-AcGFP-DGKζ = assay: Colocalization with Myr-AcGFP-DGKζ in COS-7 cells; assay type: cell-based; details: trans Golgi network and plasma membrane
Method: FIG. 17. […] After 24 h of transfection, the cells were fixed and imaged. Representative data from three independent experiments are shown. Scale bars, 20 μm.
FIGS. 32 and 33. Either Myr-AcGFP-DGKζ alone or Myr-AcGFP-DGKζ-KD was coexpressed with the DsRed monomer alone or DsRed monomer-Spo20p-PABD in COS-7 cells as indicated. After 24 h of transfection, the cells were fixed and imaged. Representative data from three independent experiments are shown. Scale bars, 20 μm.
as §3, §4

[2] = Lipid overlay assay, PA spot; assay type: binding; details: GST-tagged protein 20 nM; 16:0/16:0-glycerolipids, 100 pmol
Text: as §5, §6, §7, §8, §9

EGFP-DGKβ = assay: Colocalization with EGFP-DGKβ in COS-7 cells; assay type: cell-based; details: 24 h after transfection
Method: as §1
FIG. 14. […] FIG. 15. EGFP-DGKβ-WT was coexpressed with DsRed monomer-α-Syn-N in COS-7 cells. […] Representative data from three independent experiments are shown. Scale bars, 20 μm.
as §2, §3, §4

EGFP-PLD2 = assay: Colocalization with EGFP-PLD2 in COS-7 cells; assay type: cell-based
Method: FIGS. 21 and 22. […] Representative data from three independent experiments are shown. Scale bars, 20 μm.
as §3, §4

[3] = Liposome cosedimentation assay, PI(4,5)P2 liposomes; assay type: binding; details: protein 0.1 μM; liposomes 20 μM
Method: (§10) FIG. 7. The purified SUMO-tagged-α-Syn protein (0.1 μM) was incubated with 18:1/18:1-PA, 18:1/18:1-PS, 18:1/18:1-PI(4,5)P2, 18:1/18:1-PE and d18:1/18:1-C1P liposomes (20 μM) and then separated by ultracentrifugation. SDS-PAGE (15%) analysis was performed and separated proteins were detected with silver staining. The position of α-Syn-N is indicated with an arrow head.
(§11) FIG. 8. The amounts of protein in the precipitant were quantified by densitometry using ImageJ software. The PA binding activity of α-Syn-N was set to 100%. Values are presented as the mean±S.D. of three independent experiments. ***P<0.005 versus 18:1/18:1-PA liposome.
(§12) The following lipid mixtures were used: the control liposome: Chol (50 mol %) and 16:0/18:1-PC (50 mol %); and the PA liposome: Chol (50 mol %), 16:0/18:1-PC (35 mol %) and each PA species (15 mol %). The combined dried lipid mixture was resuspended in HEPES buffer. Then, the lipid mixture was vortexed for 1 min. Liposome formation was induced by sonication at 75° C. The purified SUMO-tagged α-Syn and its deletion mutants (2.5 μM) were dissolved in HEPES buffer and incubated with the control or PA-containing liposomes at room temperature for 1 h. […] The supernatant and pellet were analyzed by SDS-PAGE followed by Coomassie Brilliant Blue and silver staining. Quantitative densitometry was performed using ImageJ software. […]

[4] = Liposome cosedimentation assay, 18:1/18:1-PA liposomes; assay type: binding; details: for PA-binding activity (18:1/18:1-PA liposomes): 6×His-SUMO-tagged protein 2.5 μM, PA 150 μM
Method: FIG. 1. A schematic architecture of α-Syn and its deletion mutants. FIG. 2. The purified SUMO-tagged-α-Syn and its deletion mutant protein (2.5 μM) were incubated with 18:1/18:1-PA or 18:1/18:1-PS liposomes (PA or […]: 150 μM) and then separated by ultracentrifugation. SDS-PAGE (15%) was performed and separated proteins were stained with Coomassie Brilliant Blue. The positions of α-Syn and its mutants are indicated with arrow heads. The amounts of protein in the supernatant (S) and precipitant (P) were quantified by densitometry using ImageJ software. Binding activity was calculated as the percentage of the precipitate band intensity compared to the total band intensities. Values are presented as the mean±S.D. of four independent experiments. **P<0.01 versus the 18:1/18:1-PS liposome.
(§13) FIG. 3. The purified SUMO-tagged-α-Syn-N protein (2.5 μM) was incubated with control (PC and Chol alone), 16:0/16:0-PA, 16:0/18:1-PA, 18:1/18:1-PA, or 18:0/18:0-PA liposomes (PA: 150 μM) and then separated by ultracentrifugation. SDS-PAGE (15%) was performed and separated proteins were stained with Coomassie Brilliant Blue. The position of α-Syn-N is indicated with an arrow head.
(§14) FIG. 4. The amounts of protein in the supernatant (S) and precipitant (P) were quantified by densitometry using ImageJ software. Binding activity was calculated as the percentage of the precipitate band intensity compared to the total band intensities. Values are presented as the mean±S.D. of three independent experiments. #P<0.05, ##P<0.01, ###P<0.005 versus the 18:1/18:1-PA-liposome, *P<0.05, ***P<0.005 versus the control liposome.
FIG. 5. The purified SUMO-tagged-α-Syn protein (0.1 μM) was incubated with 18:1/18:1-PA liposomes of the indicated concentrations (0-20 μM) and then separated by ultracentrifugation. SDS-PAGE (15%) was performed and separated proteins were detected with silver staining. The position of α-Syn-N is indicated with an arrow head.
FIG. 6. The amounts of protein in the precipitant were quantified by densitometry using ImageJ software. Binding activity was calculated as the percentage of the precipitate band intensity compared to the total band intensities (Input). Values are presented as the mean±S.D. of four independent experiments. The Kd was determined using GraphPad Prism 8 (Dissociation-One phase exponential decay).
as §10, §11
The following lipid mixtures were used: the control liposome: Chol (50 mol %) and 16:0/18:1-PC (50 mol %); and the PA liposome: Chol (50 mol %), 16:0/18:1-PC (35 mol %) and each PA species (15 mol %). The combined dried lipid mixture was resuspended in HEPES buffer. Then, the lipid mixture was vortexed for 1 min. Liposome formation was induced by sonication at 75° C. The purified SUMO-tagged α-Syn and its deletion mutants (2.5 μM) were dissolved in HEPES buffer and incubated with the control or PA-containing liposomes at room temperature for 1 h. Then, the samples were centrifuged at 200,000 g at 4° C. for 1 h. The precipitant was dissolved in HEPES buffer. The supernatant and pellet were analyzed by SDS-PAGE followed by Coomassie Brilliant Blue and silver staining. Quantitative densitometry was performed using ImageJ software. Since the lipid forms a bilayer, half of the actual concentration was considered.

[5] = Liposome cosedimentation assay, PE and C1P liposomes; assay type: binding; details: protein 0.1 μM; liposomes 20 μM
Method: as §10, §11, §12

[6] = Liposome cosedimentation assay, other PA molecular species; assay type: binding; details: protein 2.5 μM; PA 150 μM
Method: as §13, §14
The following lipid mixtures were used: the control liposome: Chol (50 mol %) and 16:0/18:1-PC (50 mol %); and the PA liposome: Chol (50 mol %), 16:0/18:1-PC (35 mol %) and each PA species (15 mol %). The combined dried lipid mixture was resuspended in HEPES buffer. Then, the lipid mixture was vortexed for 1 min. Liposome formation was induced by sonication at 75° C. […] The supernatant and pellet were analyzed by SDS-PAGE followed by Coomassie Brilliant Blue and silver staining. Quantitative densitometry was performed using ImageJ software. […]

[7] = Liposome cosedimentation assay, PS liposomes; assay type: binding; details: protein 0.1 μM; liposomes 20 μM
Method: as §10, §11, §12

PIP5K1A = assay: Colocalization with EGFP-PIP5K1A in COS-7 cells; assay type: cell-based
Method: FIG. 23. Either EGFP alone or EGFP-PIP5K1A was coexpressed with either the DsRed monomer alone, DsRed monomer α-Syn-N or DsRed monomer PLCδ1-PHD in COS-7 cells as indicated. After 24 h of transfection, the cells were fixed and imaged. Representative data from three independent experiments are shown. Scale bars, 20 μm.
FIG. 24. The localization of EGFP-PIP5K1A, DsRed monomer-α-Syn-N and DsRed monomer-PLCδ1-PHD was quantified using ImageJ software.
as §3, §4

[8] = Lipid overlay assay, PA versus LPA and C1P; assay type: binding; details: GST-tagged protein 20 nM; 300 pmol lipids
Method: FIG. 11. Equimolar amounts (300 pmol) of 18:1/18:1-PA, 18:1-LPA, and d18:1/18:1-C1P were spotted onto nitrocellulose membranes as indicated. The membranes were incubated with purified GST-tagged-α-Syn-N(20 nM). Lipid-bound proteins were detected by an anti-GST antibody.
as §6
Three hundred picomoles of the indicated lipids were spotted onto a nitrocellulose membrane. Membrane Lipid Strip was also used. The membranes were subjected to blocking with 1% skim milk in Tris-buffered saline, pH 7.4, for 1 h at room temperature. After blocking, 10 ml of 3% bovine serum albumin in Tris-buffered saline, pH 7.4, containing purified GST alone or GST-α-Syn-N (final concentration, 20 nM) was added to the membranes. The membranes were then incubated for 1 h at room temperature. Next, the membranes were incubated with an anti-GST antibody, followed by incubation with a peroxidase-conjugated goat anti-rabbit IgG antibody. Finally, lipid-bound proteins were visualized using an ECL Western blotting detection system. Quantitative densitometry was performed using ImageJ software.

Substance	subcellular localization (COS-7 cells)	colocalization with EGFP-DGKγ at the plasma membrane (EGFP-DGKγ)	binding to other lipid spots [1]	colocalization with Myr-AcGFP-DGKζ (Myr-AcGFP-DGKζ)	binding to PA spot [2]	colocalization with EGFP-DGKβ (EGFP-DGKβ)	colocalization with EGFP-PLD2 (EGFP-PLD2)	binding to PI(4,5)P2 liposomes [3]	PA-binding activity (18:1/18:1-PA liposomes) [4]	Kd ([4]; protein 0.1 μM, 18:1/18:1-PA liposomes 0-20 μM, read-out: dissociation constant (Kd) for PA (18:1/18:1-PA)) [µM]	binding to 18:1/18:1-PA liposomes compared with other acidic glycerolipids ([4]; protein 0.1 μM, liposomes 20 μM)	binding to PE or C1P liposomes [5]	binding to 16:0/16:0- and 16:0/18:1-PA liposomes [6]	binding to PS liposomes [7]	colocalization with EGFP-PIP5K1A (PIP5K1A)	binding of PA relative to LPA and C1P [8]
α-Syn-N: N-terminal region of mouse α-synuclein (Met1-Lys60), SEQ ID NO: 2; used 6×His-SUMO-, GST- or DsRed monomer-tagged	broad distribution in the cytoplasm and the nucleus	markedly colocalized	only weak or no signals were detected	markedly colocalized	most strongly bound	clearly colocalized	clearly colocalized	only weak signals were detected	most strongly bound	6.6	most strongly bound	did not substantially interact	considerably interacted	no signals were observed	did not codistribute	significantly stronger binding
α-Syn-NAC-C: NAC and C deletion mutant of α-Syn (Glu61-Ala140), 6×His-SUMO-tagged									failed to show substantial PA-binding activity							
α-Syn-NAC: non-amyloid-β-component deletion mutant of α-Syn (Glu61-Val95), 6×His-SUMO-tagged									failed to show substantial PA-binding activity							
